Experiments:
[1] = Inhibition of hedgehog signaling pathway-mediated differentiation of mouse C3H10T1/2 cells assessed as decrease in SAG-induced ALP activity after 6 days by chemiluminescence-based assay; details: C3H 10T1/2, 144 h
Homo sapiens = species on record: Homo sapiens; test: Substrate activity at recombinant human P-gp in membrane fraction assessed as increase in ATPase activity at 10 uM by luminescent P-gp-Glo assay relative to control
CYP1A2 = molecular target: T1, CYP1A2 (Homo sapiens, UniProt P05177); test: Inhibition of recombinant human CYP1A2 expressed in insect cell microsomes at 5 uM using Luciferin-ME as substrate preincubated for 10 mins followed by NADPH addition measured after 30 mins by luminometric method; assay type: ADME; details: probe Luciferin-ME
T1 sequence (P05177 whole entry): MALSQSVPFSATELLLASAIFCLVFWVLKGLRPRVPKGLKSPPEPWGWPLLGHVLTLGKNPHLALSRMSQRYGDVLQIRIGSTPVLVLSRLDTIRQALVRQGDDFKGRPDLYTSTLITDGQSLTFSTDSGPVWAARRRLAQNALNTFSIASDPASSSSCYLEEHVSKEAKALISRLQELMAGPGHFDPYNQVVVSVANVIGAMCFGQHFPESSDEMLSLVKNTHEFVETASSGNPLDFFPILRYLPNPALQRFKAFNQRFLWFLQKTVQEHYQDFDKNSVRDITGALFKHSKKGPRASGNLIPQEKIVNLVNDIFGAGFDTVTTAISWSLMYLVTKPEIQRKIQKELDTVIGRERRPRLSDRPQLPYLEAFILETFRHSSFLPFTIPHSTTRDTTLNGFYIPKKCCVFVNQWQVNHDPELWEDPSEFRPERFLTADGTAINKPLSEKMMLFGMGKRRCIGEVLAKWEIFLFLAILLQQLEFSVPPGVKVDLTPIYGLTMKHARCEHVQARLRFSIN

CYP2C9 = CYP2C9 (Homo sapiens, UniProt P11712); test: Inhibition of recombinant human CYP2C9 expressed in insect cell microsomes at 1 uM using Luciferin-H as substrate preincubated for 30 mins followed by NADPH addition measured after 30 mins by luminometric method; assay type: ADME; details: probe Luciferin-H
[2] = Drug recovery in mouse deproteinized plasma at 37 degC after 120 mins by HPLC-MS/MS analysis; assay type: ADME, cell-free; details: read-out: Drug recovery
[3] = Cmax in CD1 mouse at 200 mg/kg, po administered as single dose by HPLC-MS/MS analysis; assay type: ADME, organism-based; design: dose 200 mg/kg, route oral; details: in vivo
[4] = Terminal half life in CD1 mouse at 200 mg/kg, po administered as single dose by HPLC-MS/MS analysis; assay type: ADME, organism-based; details: in vivo, read-out: beta t1/2 (converted)
[5] = molecular target: T2, Coelenterazine h 2-monooxygenase (Renilla reniformis, UniProt P27652); test: Effect on Renilla reniformis luciferase; assay type: ADME
T2 sequence (P27652 whole entry): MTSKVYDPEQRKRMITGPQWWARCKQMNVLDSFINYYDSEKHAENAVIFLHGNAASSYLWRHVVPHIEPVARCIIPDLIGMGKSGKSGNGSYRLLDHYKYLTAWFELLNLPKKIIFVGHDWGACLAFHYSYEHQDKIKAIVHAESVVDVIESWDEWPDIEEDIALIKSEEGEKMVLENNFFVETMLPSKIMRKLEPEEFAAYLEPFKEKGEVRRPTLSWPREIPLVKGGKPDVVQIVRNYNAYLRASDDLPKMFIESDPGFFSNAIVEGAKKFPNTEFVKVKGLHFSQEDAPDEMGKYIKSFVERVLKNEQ

[6] = Inhibition of hedgehog signaling pathway in mouse Light2 cells stimulated with 100 nM SAG after 30 hrs by Gli-firefly luciferase reporter gene assay
Mus musculus [7] = species on record: Mus musculus; test: as above
LS180 = test: Antitumor activity against human LS180 cells xenografted in athymic nude mouse assessed as tumor growth inhibition at 200 mg/kg, po administered 5 days per week for 2 weeks relative to vehicle-treated control; assay type: functional; details: read-out: TGI
Mus musculus [8] = test: Toxicity in athymic nude mouse xenografted with human LS180 cells assessed as body weight loss at 200 mg/kg, po administered 5 days per week for 2 weeks; assay type: organism-based; details: in vivo
[9] = Half life in cryopreserved mouse liver microsomes at 1 uM after 120 mins by HPLC-MS/MS analysis; assay type: ADME, microsome
[10] = Intrinsic clearance in mouse liver […] per million cells at 1 uM after 120 mins by HPLC-MS/MS analysis; assay type: ADME; details: 2 h
[11] = Intrinsic clearance in mouse liver microsomes at 1 uM after 120 mins by HPLC-MS/MS analysis; assay type: ADME, microsome; details: read-out: CLH
[12] = Stability of the compound in mouse deproteinized plasma at 37 degC after 120 mins by HPLC-MS/MS analysis; assay type: ADME, cell-free; details: 2 h

CYP2C9, sequence (P11712 whole entry): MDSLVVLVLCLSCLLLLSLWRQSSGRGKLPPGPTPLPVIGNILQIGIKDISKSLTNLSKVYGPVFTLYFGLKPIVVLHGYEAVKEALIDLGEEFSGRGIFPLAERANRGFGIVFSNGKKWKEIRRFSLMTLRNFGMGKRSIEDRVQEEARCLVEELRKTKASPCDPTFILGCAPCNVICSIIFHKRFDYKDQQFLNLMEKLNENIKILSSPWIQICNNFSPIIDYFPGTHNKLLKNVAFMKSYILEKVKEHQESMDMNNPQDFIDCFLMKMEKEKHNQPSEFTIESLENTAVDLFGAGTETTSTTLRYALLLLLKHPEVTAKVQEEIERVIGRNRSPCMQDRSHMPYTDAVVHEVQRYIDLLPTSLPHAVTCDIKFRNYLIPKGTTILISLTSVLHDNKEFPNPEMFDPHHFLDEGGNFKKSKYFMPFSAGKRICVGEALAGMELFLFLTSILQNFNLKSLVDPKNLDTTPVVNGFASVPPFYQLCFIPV

IC50 [1] [nM] | fold change (FC) (Homo sapiens) | inhibition at 0.5 h, 5 µM (CYP1A2) [%] | inhibition at 0.5 h, 1 µM (CYP2C9) [%] | remaining at 2 h [2] [%] | Cmax [3] [ng/mL] | half-life [4] [min] | Activity [5] | IC50 [6] [nM] | half-life at 1 µM [9] [min] | CLH [10] [µL/min] | CLint scaled at 1 µM [11] [mL/min/kg] | Stability [12] | SMILES | inhibition (Mus musculus [7]) | inhibition in vivo at 200 mg/kg (LS180) [%] | Activity (Mus musculus [8])
60 | 4.8 | 64 | 43 | 83 | 29600 | 144 | Not Active | 70 | – | – | – | – | COc1cc(C(=O)NC(=N)Nc2ccc(C)c(NC(=O)c3ccc(-c4ccccc4)cc3)c2)cc(OC)c1OC.Cl | Dose-dependent effect | – | –
40 | 1.4 | 43 | 68 | – | 11000 | 150 | Not Active | 20 | 8.07 | 286 | 756 | Stable | COc1cc(C(=O)NC(=N)Nc2ccc(C)c(NC(=O)c3ccc(CCc4ccccc4)cc3)c2)cc(OC)c1OC.Cl | Dose-dependent effect | 48 | Non-Toxic
70 | 2.3 | 58 | 63 | – | 17300 | 156 | Not Active | 50 | – | – | – | Stable | COc1cc(C(=O)NC(=N)Nc2ccc(C)c(NC(=O)c3ccc(-c4ccc(F)cc4)cc3)c2)cc(OC)c1OC.Cl | Dose-dependent effect | – | –

From ChEMBL document CHEMBL4270604, “Hedgehog pathway inhibitors of the acylthiourea and acylguanidine class show antitumor activity on colon cancer in vitro and in vivo” (Eur J Med Chem, 2018)
